Experimental data: ChEMBL document CHEMBL1152165, “Discovery of 1-benzoyl-3-cyanopyrrolo[1,2-a]quinolines as a new series of apoptosis inducers using a cell- and caspase-based high-throughput screening assay. Part 1: Structure-activity relationships of the 1- and 3-positions” (Bioorg Med Chem Lett, 2008)
Activity calls are given as the source filed them. The rule behind the calls is not given here.

Assays:
HCT-116 [1] = assay: Induction of apoptosis in human HCT116 cells assessed as caspase activation after 24 hrs; type: functional, cell-based; details: HCT-116, 24 h
T47D [2] = assay: Induction of apoptosis in human T47D cells assessed as caspase activation after 24 hrs; type: functional, cell-based
SNU-398 [3] = assay: Induction of apoptosis in human SNU398 cells assessed as caspase activation after 24 hrs; type: functional, cell-based; details: SNU-398, 24 h
HCT-116 [4] = assay: Growth inhibition of human HCT116 cells; type: functional
T47D [5] = assay: Growth inhibition of human T47D cells; type: functional
SNU-398 [6] = assay: Growth inhibition of human SNU398 cells; type: functional
K562 = assay: Growth inhibition of human K562 cells; type: functional
[7] = Growth inhibition of human NAMALWA cells; type: functional; details: NAMALVA
[8] = Growth inhibition of human H1299 cells; type: functional; details: NCI-H1299
DLD-1 = assay: Growth inhibition of human DLD1 cells; type: functional
[9] = Inhibition of tubulin polymerization up to 50 uM
HCT-116 [10] = assay: Cell cycle arrest in human HCT116 cells by accumulation at G2/M phase by flow cytometry; type: functional, cell-based
HT-29 = assay: Growth inhibition of human HT-29 cells; type: functional
BT-474 = assay: Growth inhibition of human BT474 cells; type: functional
SK-BR-3 = assay: Growth inhibition of human SKBR3 cells; type: functional
ZR-75-1 = assay: Growth inhibition of human ZR-75-1 cells; type: functional
Raji = assay: Growth inhibition of human Raji cells; type: functional
[11] = Inhibition of tubulin polymerization

| EC50 (HCT-116 [1]) [nM] | EC50 (T47D [2]) [nM] | EC50 (SNU-398 [3]) [nM] | GI50 (HCT-116 [4]) [nM] | GI50 (T47D [5]) [nM] | GI50 (SNU-398 [6]) [nM] | Structure (SMILES) | also measured |
| --- | --- | --- | --- | --- | --- | --- | --- |
| > 10000 | > 10000 | > 10000 |  |  |  | CCOC(=O)c1cc(C(=O)c2cccc(OC)c2)n2c1ccc1ccccc12 |  |
| 580 | 300 | 510 | 250 | 75 | 140 | N#Cc1cc(C(=O)c2ccc(N3CCCC3)cc2)n2c1ccc1ccccc12 |  |
| 320 | 210 | 300 |  |  |  | N#Cc1cc(C(O)c2ccc(N3CCCC3)cc2)n2c1ccc1ccccc12 (stereo not drawn) |  |
| 550 | 160 | 350 |  |  |  | N#Cc1cc(C(O)c2ccc(-n3cccn3)cc2)n2c1ccc1ccccc12 (stereo not drawn) |  |
| 3700 | 690 | 2600 |  |  |  | N#Cc1cc(C(=O)c2cccnc2)n2c1ccc1ccccc12 |  |
| 1700 | 170 | 1600 |  |  |  | COc1cccc(C(=O)c2cc(C#N)c3ccc4ccccc4n23)c1 |  |
| 5500 | 78 | 5200 | 5800 | 70 | 2000 | N#Cc1cc(C(=O)c2ccccc2)n2c1ccc1ccccc12 | GI50 (K562): 1200 nM; GI50 [7]: 1200 nM; GI50 [8]: 1200 nM; GI50 (DLD-1): 1200 nM; Activity [9]: inactive; Activity (HCT-116 [10]): Active; GI50 (HT-29): 1200 nM; GI50 (BT-474): 70 nM; GI50 (SK-BR-3): 70 nM; GI50 (ZR-75-1): 70 nM; GI50 (Raji): 1200 nM |
| 280 | 280 | 180 | 490 | 71 | 120 | COc1ccc(C(=O)c2cc(C#N)c3ccc4ccccc4n23)cc1 |  |
| 96 | 41 | 57 | 240 | 72 | 36 | N#Cc1cc(C(=O)c2ccc(-n3cccn3)cc2)n2c1ccc1ccccc12 | IC50 [11]: 1000 nM |
| 240 | 170 | 200 | 1200 | 470 | 420 | N#Cc1cc(C(=O)c2ccc(N)cc2)n2c1ccc1ccccc12 |  |
| 2500 | 140 | 2700 | 1600 | 87 | 730 | Cc1ccccc1C(=O)c1cc(C#N)c2ccc3ccccc3n12 |  |
| > 10000 | 49 | > 10000 |  |  |  | N#Cc1cc(C(=O)c2ccc(Cl)cc2)n2c1ccc1ccccc12 |  |
| 1200 | 36 | 880 |  |  |  | N#Cc1cc(C(=O)c2ccc(F)cc2)n2c1ccc1ccccc12 |  |
| > 10000 | > 10000 | > 10000 |  |  |  | CC(=O)c1cc(C(=O)c2ccc(C)cc2)n2c1ccc1ccccc12 |  |
| 74 | 34 | 39 | 65 | 41 | 59 | N#Cc1cc(C(=O)c2ccc(-n3ccnc3)cc2)n2c1ccc1ccccc12 | IC50 [11]: 5000 nM; Activity (HCT-116 [10]): Active |
| > 10000 | > 10000 | > 10000 |  |  |  | N#Cc1cc(C(=O)c2ccc(N3CCNCC3)cc2)n2c1ccc1ccccc12 |  |
| 4200 | 930 | 2700 |  |  |  | Cc1ccc(C(=O)c2cc(C#N)c3ccc4ccccc4n23)cc1 |  |
| 1900 | 40 | 1600 |  |  |  | N#Cc1cc(C(=O)c2ccccn2)n2c1ccc1ccccc12 |  |
| 240 | 220 | 140 |  |  |  | COc1ccc(C(O)c2cc(C#N)c3ccc4ccccc4n23)cc1 (stereo not drawn) |  |
| 370 | 100 | 260 |  |  |  | CCN(CC)c1ccc(C(=O)c2cc(C#N)c3ccc4ccccc4n23)cc1 |  |
| > 10000 | 2800 | > 10000 |  |  |  | N#Cc1cc(C(=O)c2ccc([N+](=O)[O-])cc2)n2c1ccc1ccccc12 |  |
